Source: US5905036A, “Characterization of organic contaminants and assessment of remediation performance in subsurface formations” (Board Of Regents, The University of Texas System, priority 1997, dated 1999)
“Also recorded” adds a separate entry of the source. Read-outs that look alike come from different tables or passages of the source.

How the values were obtained:
[1] = Partitioning tracer column experiment, Ottawa sand contaminated with TCE, air carrier (Example 3); conditions: for Mean Residence Times ti / Mean Residence Times ti (cc) / Activity Coefficient, γi: 0.45 cc/min; for partitioning into TCE (in words): Ottawa sand column; for Activity Coefficient, γi: in TCE, ideal Ki / experimental Ki
Description: Three columns were prepared for each experiment: (1) a contaminated primary column (2.5 cm×30 cm) saturated with residual water and TCE; (2) a contaminated pre-column (2.5 cm×60 cm) saturated with water and TCE; and (3) an uncontaminated secondary column (2.5 cm×30 cm) saturated only with water.
The primary column was mounted in a vertical configuration and a burette with 100 cc of deionized water was mounted above the column and attached to the inlet. The valve on the burette was opened and water was allowed to gravity drain into the column. After approximately one pore volume of water had entered the column, the burette was disconnected and the column was allowed to continue to gravity drain. Air was flushed through the column to displace any mobile water. The difference between the water injected and the water produced was used to determine the residual water saturation.
Next, approximately 5 cc of TCE, enough to produce a residual saturation, was injected into the primary column using a syringe and allowed to gravity drain. After draining overnight, the column was weighed for a more accurate estimate of TCE saturation. […] In both cases, water and TCE injection, the pre-column was treated in the same manner. However, larger amounts of water and TCE were injected since the pre-column is twice as large.
The primary column and pre-column were plumbed into the flowpath. Air flow was through the precolumn, past the reference side of the thermal conductivity detector (TCD), to the test column and then to the measurement side of the TCD. Two injectors, one for the gas tracers (Valco Instruments'switching valve with sample loop) and one for liquid tracers (heated injection port) were located between the reference side of the TCD and the test column. Flow rates were adjusted by the use of a snubber valve located between the precolumn and TCD. Flow rates were monitored and measured by a combination of rotameters and a bubble meter. The TCD measures the difference between the reference stream and the effluent of the test column. Additionally, water-filled manometers were affixed to each end of the column to measure pressure drops across the column.
Approximately 4 to 8 hours was required for the air stream to equilibrate and for a stable baseline to be established. When the baseline was stable, tracer injections began. Data collected from the TCD were integrated and the integration values stored to computer files data acquisition software.
After the uncontaminated column experiment had been completed, the contaminated column experiments were begun. […] The mean residence time for production of each tracer was calculated from the response curves using the method of moments. This value can be expressed in minutes or converted to volume units by multiplying by the flow rate.

[2] = Partitioning tracer column experiment, field soil contaminated with TCE; format: physicochemical; conditions: for Activity Coefficient, γi, in field soil: field soil contaminated with TCE
[3] = cited from earlier work
[4] = water; cited from earlier work
[5] = Partitioning tracer column experiment after surfactant remediation of the sand (Example 2); format: physicochemical; conditions: no NAPL present
From the text: The contaminated sand from Example 1 was cleaned by flushing the sand with an aqueous solution of surfactant until all the trichloroethene was removed to thereby simulate a successful remediation. The procedure of Example 1 was then repeated.

[6] = Partitioning tracer column experiment, PCE-contaminated water-saturated Ottawa sand (Example 1); format: physicochemical; conditions: water-saturated sand with residual PCE
Description: A soil column experiment was performed to illustrate the use of partitioning tracers to detect DNAPL in a saturated zone. A Kontes preparative chromatography column made of borosilicate glass (4.8 cm ID) was packed with-mesh sizes of 60 to 200 Ottawa sand and saturated with water at 23° C. The length of this sandpack was 12.24 cm. The porosity and intrinsic permeability to water were measured and found to be 0.329 and 5.84 Darcy, respectively. […] Two alcohol tracers were added to the water and 0.52 pore volumes of water containing these tracers were injected at 0.316 ml/min followed by several more pore volumes of water until the alcohols could no longer be detected in the effluent. […] The partition coefficients of each of these alcohols were determined by equilibrating samples containing in the range of 100 to 1,000 mg/l of both alcohols with equal volumes of water and PCE and measuring the alcohol concentrations in each phase using a gas chromatograph. […]
The separation of the two curves gives an unmistakable signal that the sand is contaminated with PCE. […] This value agrees with the value measured from a mass balance on the PCE within the experimental error of each of the measurements. The tracer curves were then numerically simulated using this value and the measured partition coefficients and these are the curves shown in FIG. 1. […]

[7] = Tracer injection into uncontaminated secondary column (Example 3); format: physicochemical; conditions: for adsorption: inferred; for mean residence time: method of moments
Description: A secondary, uncontaminated column was packed and configured in the same manner as the contaminated column. The only modification made to this column was that the volume of water was equal to the volume of water plus TCE in the primary column. This secondary column was used to observe tracer behavior in an uncontaminated environment.
Before tracer injection began in the primary column, argon and C6 F12 were injected into the secondary column. Their breakthrough curves are plotted in FIG. 3. Using this procedure, the gas saturation in the secondary column would be similar to that in the primary column. The secondary column was first allowed to equilibrate. […] The C6 F12 was injected as a liquid through the heated injection port. The injector temperature was 40° C.; the liquid was vaporized and moved through the column as a gas. […] When mixed with air, however, they become gases.
The mean residence times should be equal since there is no TCE for the tracer to partition into. […] The flatness of the peak is believed to be a result of the fact that the liquid vaporizes slowly.

[8] = Batch equilibrium measurement of the partition coefficient with TCE; format: physicochemical
From the text: Since a rate dependence was observed, the rate was lowered to 0.08 cc/min and the experiment repeated for C4 F8. In addition, a batch equilibrium measurement of the partition coefficient was made for this tracer. […] The residence time at 0.45 cc/min is about two hours and several times this may be required for equilibrium partitioning. As the partition coefficient increases, so does the residence time, so the heavier tracers should be less effected by nonequilibrium partitioning. In any case, once suitable tracers have been identified, as has been done here, either batch experiments or experiments at low rates or in longer columns (to give long residence times) can be conducted to determine the equilibrium partitioning coefficients needed for field application (assuming the residence time for the field test is long compared to the column test).

Row | Compound | Mean Residence Times ti ([1]; Ottawa sand, TCE) [min] | Mean Residence Times ti (cc) ([1]; Ottawa sand, TCE) | Activity Coefficient, γi ([1]; Ottawa sand) | Vapor Press ([3]; @ 25 ° C.) [psi] | Activity Coefficient, γi, in field soil [2] | further results
1 | FC(F)(F)F [CF4, Carbon Tetrafluoride] | 95.1 | 42.8 | – | – | – | partitioning into TCE (in words) [1]: essentially zero; also recorded: negligible partitioning; partitioning into TCE in field soil (in words) ([2]; field soil): negligible partitioning
2 | FC1=C(F)C(F)(F)C(F)(F)C1(F)F [C5 F8, Octafluorocyclopentene] | 235.0 | 105.8 | 20.3 | 12.7 | 17.2 | –
3 | ClC=C(Cl)Cl [TCE, trichloroethylene] | – | – | – | – | – | vapor pressure ([3]; 20° C.): 1.16 psi; aqueous solubility [4]: 1385 milligrams/liter
4 | CC(C)C(C)(C)O [DMB, 2,3dimethyl 2-butanol] | – | – | – | – | – | tracer travel after remediation (in words) [5]: travel through the sand at the same rate; partitioning / retardation in PCE-contaminated column [6]: retarded relative to the IPA
5 | dodecafluorodimethylcyclobutane [C6 F12] | 204.4 | 92.0 | 52.0 | 7.2 | 45 | factor by which mean residence time differs from argon ([1]; primary column, TCE, Ottawa sand): more than two; adsorption [7]: negligible; mean residence time [7]: 45 cc
6 | FS(F)(F)(F)(F)F [SF6, Sulfur Hexafluoride] | 103.7 | 46.7 | 11.6 | – | 17.2 | partitioning into TCE (in words) [1]: small but experimentally significant partitioning; Vapor Press ([3]; @ 21 ° C.): 334 psi
7 | FC(F)(F)C1(F)C(F)(F)C(F)(F)C(F)(F)C(F)(C(F)(F)F)C1(F)F (stereo not shown) [C8 F16, perfluoro-1,3-dimethylcyclohexane] | 1055.0 | 474.8 | 63.1 | 0.67 | 89.7 | –
8 | [Ar] [Argon] | 93.2 | 41.9 | – | – | – | adsorption [7]: negligible; mean residence time [7]: 45 cc
9 | [3H]O[3H] [tritiated water] | – | – | – | – | – | partitioning / retardation in PCE-contaminated column [6]: does not partition
10 | FC(F)(F)C1(F)C(F)(F)C(F)(F)C(F)(F)C(F)(F)C1(F)F [C7 F14, perfluoromethylcyclohexane] | 362.6 | 163.2 | 58.3 | 2.1 | 52.6 | –
11 | FC1(F)C(F)(F)C(F)(F)C1(F)F [C4 F8, Octafluorocyclobutane] | 131.4 | 59.1 | 26.6 | – | 20.8 | partition coefficient, batch equilibrium [8]: about 4.7; partition coefficient at 0.08 cc/min ([1]; 0.08 cc/min, Ottawa sand, TCE): about 4.7; Vapor Press ([3]; @ 21 ° C.): 40 psi
